Measurements as given in article PMC7795096, “LPMO AfAA9_B and Cellobiohydrolase AfCel6A from A. fumigatus Boost Enzymatic Saccharification Activity of Cellulase Cocktail” (International Journal of Molecular Sciences, 2020).

Target: T1, AfCel6A (Aspergillus fumigatus, UniProt Q4WFK4)
T1 construct: gene cbhC; without predicted signal peptide (forward primer encodes QQTVW start) in pPICZαA, with N-terminal CBM1, His6 tag kept, secreted by Pichia pastoris X-33, about 65 kDa
T1 sequence (Q4WFK4 20-454): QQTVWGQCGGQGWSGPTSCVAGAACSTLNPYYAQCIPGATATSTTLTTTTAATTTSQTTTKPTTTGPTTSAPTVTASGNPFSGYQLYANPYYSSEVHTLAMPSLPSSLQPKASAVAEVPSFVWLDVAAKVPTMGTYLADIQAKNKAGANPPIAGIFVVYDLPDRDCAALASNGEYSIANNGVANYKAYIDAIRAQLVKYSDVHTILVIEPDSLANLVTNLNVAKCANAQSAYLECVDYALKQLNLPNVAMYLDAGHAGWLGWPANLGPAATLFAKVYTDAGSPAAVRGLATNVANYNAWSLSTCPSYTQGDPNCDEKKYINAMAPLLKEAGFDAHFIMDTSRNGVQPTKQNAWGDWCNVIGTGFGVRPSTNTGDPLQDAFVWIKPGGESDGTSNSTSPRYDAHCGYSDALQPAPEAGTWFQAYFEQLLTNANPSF
Assay: activity at rising sugar concentration ([…]), substrate 4-nitrophenyl β-D-cellobioside
Format: biochemical
Settings: product inhibition; the text also states 50% inhibition at 100 mM

OC[C@H]1O[C@@H](O[C@H]2[C@H](O)[C@@H](O)C(O)O[C@@H]2CO)[C@H](O)[C@@H](O)[C@@H]1O (stereo partly shown) [cellobiose]
IC50: > 100 mM
